# What was measured:
# Experiment in all cases: relative viability (nuclei count vs DMSO), 5 days (fraction); higher = more cells survive
# [1] = compound: CC[C@@H](C)CNCC(=O)N1CCC2=C([C@@H]1COC3=CC=CC(=C3)C)C=CS2 [RU-SKI 43] + CC(=O)c1c(C)c2cnc(Nc3ccc(N4CCNCC4)cn3)nc2n(C2CCCC2)c1=O [Palbociclib] (partner 0.5 µM)
# Outline: (§1)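 Lung cancer cell lines in 1536-well plates were dosed by pin tool the day after seeding, either with one drug alone or with a fixed anchor-drug dose plus five library-drug doses (not always all listed) in √10 steps. After 5 days, cells were fixed and their nuclei stained in one step (final 0.05% Triton X-100, 1% formaldehyde, 1 ug/ml Hoechst), then counted on 4× images. Relative viability is the nuclei count in treated wells divided by that in vehicle wells. Values are medians of duplicate plates.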
# [2] = compound: CCc1c2c(nc3ccc(OC(=O)N4CCC(N5CCCCC5)CC4)cc13)-c1cc3c(c(=O)n1C2)COC(=O)[C@]3(O)CC [Irinotecan] + CC(C)C[C@H](NC(=O)[C@H](Cc1ccccc1)NC(=O)c1cnccn1)B(O)O [Bortezomib] (partner 0.002 µM)
# Outline: as §1
# [3] = compound: CCc1c2c(nc3ccc(OC(=O)N4CCC(N5CCCCC5)CC4)cc13)-c1cc3c(c(=O)n1C2)COC(=O)[C@]3(O)CC [Irinotecan] + COc1cc2c(Oc3ccc(NC(=O)C4(C(=O)Nc5ccc(F)cc5)CC4)cc3F)ccnc2cc1OCCCN1CCOCC1 [Foretinib] (partner 0.25 µM)
# Outline: as §1
# [4] = compound: CCc1c2c(nc3ccc(OC(=O)N4CCC(N5CCCCC5)CC4)cc13)-c1cc3c(c(=O)n1C2)COC(=O)[C@]3(O)CC [Irinotecan] + CS(=O)(=O)CCNCc1ccc(-c2ccc3ncnc(Nc4ccc(OCc5cccc(F)c5)c(Cl)c4)c3c2)o1 [Lapatinib] (partner 2 µM)
# Outline: as §1
Cell Line,relative viability ([1]; first compound 0.1 µM),relative viability ([1]; first compound 0.3162 µM),relative viability ([1]; first compound 1 µM),relative viability ([1]; first compound 3.162 µM),relative viability ([1]; first compound 10 µM),relative viability ([2]; first compound 2 µM),relative viability ([2]; first compound 6.325 µM),relative viability ([2]; first compound 20 µM),relative viability ([3]; first compound 2 µM),relative viability ([3]; first compound 6.325 µM),relative viability ([3]; first compound 20 µM),relative viability ([4]; first compound 2 µM),relative viability ([4]; first compound 6.325 µM),relative viability ([4]; first compound 20 µM),relative viability ([3]; first compound 0.6325 µM),relative viability ([4]; first compound 0.6325 µM),relative viability ([2]; first compound 0.6325 µM)
201T,0.367,0.329,0.368,0.361,0.361,1.12,1.06,0.942,0.991,0.53,0.151,1.03,0.738,0.322,–,–,–
A549,–,–,–,–,–,–,–,–,0.611,0.122,0.0515,0.529,0.112,0.0497,0.885,0.723,–
A-427,0.536,0.532,0.523,0.564,0.503,0.427,0.198,0.187,0.24,0.229,0.219,0.752,0.221,0.179,–,–,–
ABC-1,0.517,0.824,0.719,0.866,0.636,0.276,0.324,0.103,0.617,0.28,0.152,1.17,0.646,0.574,–,1.05,–
BEN,0.489,0.468,0.523,0.46,0.451,0.561,0.218,0.296,0.613,0.206,0.324,0.418,0.244,0.338,0.328,0.542,0.547
CAL-12T,0.413,0.474,0.365,0.457,0.391,0.978,0.491,0.324,0.924,0.398,0.293,0.543,0.475,0.442,–,0.71,0.944
COR-L23,0.288,0.241,0.311,0.357,0.277,0.396,0.211,0.113,0.446,0.183,0.192,0.378,0.177,0.121,0.525,0.383,0.506
COR-L 105,0.39,0.367,0.433,0.395,0.363,0.798,0.627,0.291,0.8,0.682,0.524,0.431,0.452,0.272,1.11,0.358,0.676
Calu-6,–,–,–,–,–,0.551,0.296,0.114,0.429,0.168,0.087,0.514,0.226,0.125,0.605,0.599,0.816
ChaGo-K-1,0.919,1.05,1,0.976,0.956,1.05,0.46,0.379,0.367,0.255,0.248,–,–,–,0.65,–,–
EBC-1,–,–,–,–,–,0.437,0.474,0.143,0.1,0.115,0.112,0.172,0.21,0.15,0.0988,0.219,0.421
EKVX,0.332,0.319,0.336,0.379,0.353,0.772,0.394,0.193,0.726,0.529,0.164,0.256,0.16,0.17,0.199,0.222,1.08
EMC-BAC-2,0.523,0.477,0.552,0.505,0.518,0.717,0.242,0.218,0.379,0.274,0.44,0.578,0.27,0.246,0.691,0.774,0.952
EPLC-272H,0.315,0.254,0.323,0.286,0.307,0.635,0.317,0.217,0.235,0.168,0.297,0.758,0.211,0.267,0.283,0.509,0.744
H3255,0.313,0.316,0.331,0.32,0.301,0.529,0.299,0.392,0.558,0.36,0.305,0.214,0.224,0.23,0.398,0.206,0.432
HARA,0.233,0.205,0.281,0.28,0.233,0.291,0.177,0.156,0.174,0.116,0.127,0.339,0.17,0.118,0.315,0.749,0.955
HCC-15,0.706,0.883,0.76,0.753,0.665,0.623,0.374,0.176,0.695,0.23,0.161,0.336,0.17,0.155,–,0.463,0.603
HCC-44,0.942,0.987,0.97,1.03,0.953,0.752,0.229,0.351,–,–,–,0.73,0.273,0.382,–,0.96,0.74
HCC-78,0.43,0.408,0.533,0.461,0.503,0.393,0.242,0.257,0.491,0.282,0.24,0.543,0.206,0.218,0.695,0.551,0.404
HCC-366,0.274,0.447,0.416,0.396,0.264,0.361,0.0441,0.0691,0.114,0.0566,0.0694,0.126,0.0457,0.0686,0.346,0.418,0.731
HCC-827,0.474,0.414,0.56,0.498,0.427,0.923,0.639,0.416,0.324,0.207,0.175,0.222,0.133,0.16,0.637,0.178,1.03
HOP-62,0.462,0.508,0.532,0.469,0.403,0.2,0.112,0.179,0.256,0.199,0.195,0.258,0.143,0.217,0.7,0.471,0.642
IA-LM,–,–,–,–,–,0.355,0.197,0.0773,0.62,0.148,0.117,0.26,0.134,0.0941,0.951,0.426,0.722

Cell Line,relative viability ([1]; first compound 0.1 µM),relative viability ([1]; first compound 0.3162 µM),relative viability ([1]; first compound 1 µM),relative viability ([1]; first compound 3.162 µM),relative viability ([1]; first compound 10 µM),relative viability ([2]; first compound 2 µM),relative viability ([2]; first compound 6.325 µM),relative viability ([2]; first compound 20 µM),relative viability ([3]; first compound 2 µM),relative viability ([3]; first compound 6.325 µM),relative viability ([3]; first compound 20 µM),relative viability ([4]; first compound 2 µM),relative viability ([4]; first compound 6.325 µM),relative viability ([4]; first compound 20 µM),relative viability ([3]; first compound 0.6325 µM),relative viability ([4]; first compound 0.6325 µM),relative viability ([2]; first compound 0.6325 µM)
LC-2-ad,0.509,0.579,0.532,0.514,0.445,0.286,0.167,0.128,0.621,0.288,0.235,0.291,0.172,0.132,0.73,0.416,0.688
LCLC-97TM1,0.296,0.189,0.281,0.222,0.231,0.387,0.148,0.176,0.172,0.151,0.194,0.263,0.156,0.173,0.435,0.317,0.41
LCLC-103H,0.525,0.453,0.471,0.495,0.496,0.76,0.518,0.557,0.522,0.373,0.347,–,–,–,0.59,–,0.813
LK-2,0.685,0.912,0.949,0.673,0.674,–,–,–,0.329,0.305,0.283,1.33,0.411,0.32,1.25,0.852,–
LOU-NH91,0.523,0.515,0.552,0.496,0.518,0.442,0.359,0.413,0.756,0.374,0.294,0.8,0.414,0.402,0.871,0.685,0.486
LU99A,0.376,0.442,0.53,0.399,0.387,0.326,0.18,0.249,0.253,0.187,0.225,0.309,0.203,0.197,0.366,0.367,0.42
NCI-H358,0.129,0.152,0.15,0.128,0.128,–,–,–,0.476,0.195,0.134,0.47,0.327,0.21,0.563,0.406,–
NCI-H441,0.192,0.278,0.205,0.229,0.146,0.378,0.435,0.358,0.66,0.29,0.342,–,–,–,0.786,–,0.413
NCI-H522,1.22,1.08,1.18,1.29,0.977,–,–,–,–,–,–,–,–,–,–,–,–
NCI-H596,–,–,–,–,–,1.09,0.709,0.79,0.783,0.621,0.632,1.03,0.613,0.579,0.841,1.11,0.867
NCI-H1299,–,–,–,–,–,0.824,0.487,0.415,0.909,0.483,0.212,0.693,0.399,0.203,0.888,0.721,0.932
NCI-H1395,0.638,0.685,0.714,0.624,0.573,–,–,–,0.592,0.498,0.495,0.732,0.531,0.361,0.841,–,–
NCI-H1563,–,–,–,–,–,0.891,0.871,0.477,0.928,0.975,0.425,1.05,0.954,0.441,0.966,0.674,0.598
NCI-H1623,–,–,–,–,–,–,–,–,0.64,0.299,0.279,–,–,–,0.621,–,–
NCI-H1648,0.284,0.26,0.257,0.304,0.271,–,–,–,–,–,–,–,–,–,–,–,–
NCI-H1703,–,–,–,–,–,0.426,0.33,0.112,0.433,0.512,0.367,1.32,0.39,0.158,0.321,0.953,0.267
NCI-H1792,0.692,0.764,0.685,0.698,0.662,1.17,0.486,0.192,–,–,–,0.949,0.202,0.11,–,0.92,0.955
NCI-H1793,0.331,0.222,0.326,0.336,0.27,–,–,–,0.501,0.226,0.185,0.547,0.253,0.235,–,–,–
NCI-H1944,0.34,0.334,0.328,0.316,0.303,–,–,–,0.351,0.198,0.18,0.369,0.178,0.187,0.655,0.563,–
NCI-H2170,0.394,0.467,0.419,0.453,0.372,–,–,–,0.616,0.252,0.214,0.264,0.231,0.2,1.01,0.271,–
NCI-H2342,0.524,–,0.547,0.524,0.488,–,–,–,0.928,0.826,0.525,–,–,–,1.17,–,–
SK-MES-1,0.292,0.304,0.34,0.344,0.26,–,–,–,0.644,0.441,0.285,0.414,0.25,0.32,0.915,0.544,–
SW 900,0.542,0.513,0.522,0.522,0.45,–,–,–,0.667,0.393,0.448,–,–,–,0.898,–,–

# Source: the supplement of paper PMC10307832
